Laboratory results published in patent US6727237B2, “Inhibitors of bacterial NAD synthetase” (priority 1998, dated 2004).

Columns and labels:
[1] = molecular target: T1, bacterial NAD synthetase enzyme (Bacillus subtilis, UniProt P08164); assay: biochemical; format: biochemical
T1 sequence (P08164 2-272 limits assumed): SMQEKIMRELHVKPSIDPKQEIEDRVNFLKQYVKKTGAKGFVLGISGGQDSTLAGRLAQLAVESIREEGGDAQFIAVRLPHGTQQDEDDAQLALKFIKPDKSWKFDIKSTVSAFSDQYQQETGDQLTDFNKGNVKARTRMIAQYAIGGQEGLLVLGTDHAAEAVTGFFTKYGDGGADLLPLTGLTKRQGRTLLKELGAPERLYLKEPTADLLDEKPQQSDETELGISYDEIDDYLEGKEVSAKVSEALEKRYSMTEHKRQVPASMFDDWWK

[2] = system: Staphylococcus epidermitis; assay: Bacterial growth inhibition screen in LB media (absorbance 595 nm), percent inhibition; settings: S. epidermitis
[3] = compound at 0.2 mM (Table 312A)

Row | SMILES | % Inhibition [1, 3] [%] | % Inhibition ([2]; concentration screened 100 uM) [%] | % Inhibition ([2]; concentration screened 10 uM) [%] | % Inhibition ([1]; compound at 0.1 mM (Table 314)) [%] | IC50 ([1]; lead compounds (Table 318A), read-out: IC 50) [µM]
1 | COC(=O)c1ccc2[nH]c(CCCCC[n+]3ccccc3)cc2c1 [Compound 380] | 10.09 | 97.64 |  |  | 
2 | CC(C)c1ccc2[nH]c(CCCCCCCC[n+]3cccc4ccccc43)cc2c1 [Compound 431] | 10.77 |  | 22.28 |  | 
3 | Fc1cc(F)c2[nH]c(CCC[n+]3cccc4ccccc43)cc2c1 [Compound 408] | 7.04 |  | 1.88 |  | 
4 | CC(=O)c1ccc2[nH]c(CCCCC[n+]3cccc4ccccc43)cc2c1 [Compound 476] | 17.49 |  | 11.14 |  | 
5 | COC(=O)c1ccc2[nH]c(CCC[n+]3cccc4ccccc43)cc2c1 [Compound 486] | 4.97 |  | 22.28 |  | 
6 | O=[N+]([O-])c1cc([N+](=O)[O-])c2[nH]c(CCCC[n+]3cccc4ccccc43)cc2c1 [Compound 415] | 7.72 |  | 1.95 |  | 
7 | COC(=O)c1ccc2[nH]c(CCCCCCC[n+]3ccc4ccccc4c3)cc2c1 [Compound 598] | 43.33 |  | 8.86 |  | 
8 | COc1ccc2[nH]c(CCCCC[n+]3cccc4ccccc43)cc2c1 [Compound 482] | 17.07 |  | 4.39 |  | 
9 | FC(F)(F)c1ccc2[nH]c(CCCCCC[n+]3ccc4ccccc4c3)cc2c1 [Compound 579] | 12.57 |  | 5.57 |  | 
10 | Cc1ccc2[nH]c(CCCCCC[n+]3cccc4ccccc43)cc2c1 [Compound 405] | 6.07 |  | 44.01 |  | 
11 | O=[N+]([O-])c1cc([N+](=O)[O-])c2[nH]c(CCC[n+]3ccccc3)cc2c1 [Compound 306] | 33.93 |  | 4.32 |  | 
12 | O=[N+]([O-])c1ccc2[nH]c(CCC[n+]3cccc4ccccc43)cc2c1 [Compound 438] | 9.45 |  | 5.29 |  | 
13 | c1ccc(-c2ccc3[nH]c(CCCCCCCC[n+]4cccc5ccccc54)cc3c2)cc1 [Compound 437] | 6.91 |  | 11.84 |  | 
14 | O=C(O)c1ccc2[nH]c(CCCCC[n+]3ccccc3)cc2c1 [Compound 386] | 28.75 | 96.36 |  |  | 
15 | COC(=O)c1ccc[n+](CCCCn2ccc3cc([N+](=O)[O-])ccc32)c1 [Compound 9] | 28.02 |  | 31.80 |  | 
16 | FC(F)(F)c1ccc2cc(CCC[n+]3cccc4ccccc43)[nH]c2c1 [Compound 396] |  |  | 1.53 | 3.64 | 
17 | CC(C)c1ccc2[nH]c(CCCCOC(=O)c3ccc(N(C)C)cc3)cc2c1 [Compound 627] | 11.19 | 20.10 |  |  | 
18 | CC(=O)c1ccc2[nH]c(CCCCCC[n+]3ccc4ccccc4c3)cc2c1 [Compound 585] | 17.43 |  | 2.09 |  | 
19 | O=[N+]([O-])c1cc([N+](=O)[O-])c2[nH]c(CCCCC[n+]3ccc4ccccc4c3)cc2c1 [Compound 524] | 30.81 | 99.57 |  |  | 
20 | O=C(OCCCCc1cc2cc(C(F)(F)F)ccc2[nH]1)c1cccnc1 [Compound 654] | 2.11 |  | 25.20 |  | 
21 | c1cc[n+](CCCCCCc2cc3ccccc3[nH]2)cc1 [Compound 285] | 32.45 | 98.57 |  |  | 
22 | O=C(c1ccccc1)c1ccc2[nH]c(CCCCC[n+]3ccc4ccccc4c3)cc2c1 [Compound 572] | 31.02 | 96.57 |  |  | 
23 | c1ccc(-c2ccc3[nH]c(CCCCC[n+]4cccc5ccccc54)cc3c2)cc1 [Compound 434] | 5.36 |  | 5.64 |  | 

Row | SMILES | % Inhibition [1, 3] [%] | % Inhibition ([2]; concentration screened 100 uM) [%] | % Inhibition ([2]; concentration screened 10 uM) [%] | % Inhibition ([1]; compound at 0.1 mM (Table 314)) [%] | IC50 ([1]; lead compounds (Table 318A), read-out: IC 50) [µM]
24 | O=C(OCCCCCCCCc1cc2cc(Oc3ccccc3)ccc2[nH]1)c1cccnc1 [Compound 662] | 8.39 |  | 3.27 |  | 
25 | COC(=O)c1ccc2[nH]c(CCCCC[n+]3ccc4ccccc4c3)cc2c1 [Compound 596] | 56.49 | 96.36 |  |  | 
26 | CC(=O)c1ccc2[nH]c(CCCCCCCC[n+]3ccc4ccccc4c3)cc2c1 [Compound 587] | 56.47 | 100.00 |  |  | 
27 | O=[N+]([O-])c1ccc2[nH]c(CCCC[n+]3cccc4ccccc43)cc2c1 [Compound 439] |  |  | 30.57 | 2.57 | 
28 | COc1ccc2[nH]c(CCCC[n+]3ccc4ccccc4c3)cc2c1 [Compound 589] |  |  | 29.35 | 24.98 | 
29 | CCCCc1ccc2[nH]c(CCCCCC[n+]3cccc4ccccc43)cc2c1 [Compound 423] | 12.09 |  | 16.85 |  | 
30 | CCCCc1ccc2[nH]c(CCCCC[n+]3cccc4ccccc43)cc2c1 [Compound 422] | 16.23 |  | 9.82 |  | 
31 | c1ccc(-c2ccc3[nH]c(CCCCCC[n+]4ccccc4)cc3c2)cc1 [Compound 327] |  | 100.00 |  | 55.31 | 
32 | CC(=O)c1ccc2[nH]c(CCCCC[n+]3ccc4ccccc4c3)cc2c1 [Compound 584] | 68.79 | 96.07 |  |  | 
33 | O=C(O)c1ccc2[nH]c(CCCCCC[n+]3ccccc3)cc2c1 [Compound 387] |  | 97.64 |  | 29.97 | 
34 | O=C(O)c1ccc2[nH]c(CCCCCC[n+]3ccc4ccccc4c3)cc2c1 [Compound 603] | 51.72 |  | 1.60 |  | 
35 | c1ccc(C(c2ccccc2)(c2ccccc2)c2ccc3[nH]c(CCCC[n+]4cccc5ccccc54)cc3c2)cc1 [Compound 445] | 5.43 |  | 11.21 |  | 
36 | c1ccc(Oc2ccc3[nH]c(CCCCCCC[n+]4ccc5ccccc5c4)cc3c2)cc1 [Compound 568] | 18.95 |  | 3.10 |  | 
37 | CN(C)c1cccc(C(=O)OCCCCCCCCc2cc3cc(Oc4ccccc4)ccc3[nH]2)c1 [Compound 617] | 2.02 | 19.54 |  |  | 
38 | c1ccc(Oc2ccc3[nH]c(CCCC[n+]4cccc5ccccc54)cc3c2)cc1 [Compound 457] | 3.31 |  | 4.67 |  | 
39 | Fc1cc(F)c2[nH]c(CCCCCC[n+]3cccc4ccccc43)cc2c1 [Compound 411] | 8.84 |  | 15.74 |  | 
40 | CN(C)c1ccc(CC(=O)OCCCCCCn2ccc3cc([N+](=O)[O-])ccc32)cc1 [Compound 850] |  |  | 56.50 | 87.46 | 80
41 | O=C(c1ccccc1)c1ccc2[nH]c(CCCCCC[n+]3ccc4ccccc4c3)cc2c1 [Compound 573] | 26.24 |  | 16.09 |  | 
42 | CC(=O)c1ccc2[nH]c(CCCCCC[n+]3cccc4ccccc43)cc2c1 [Compound 477] | 10.15 |  | 3.69 |  | 
43 | CC(C)c1ccc2[nH]c(CCC[n+]3ccccc3)cc2c1 [Compound 318] | 14.94 |  | 2.99 |  | 
44 | Cc1ccc2[nH]c(CCCC[n+]3cccc4ccccc43)cc2c1 [Compound 403] | 5.07 |  | 4.87 |  | 
45 | CN(C)c1ccc(C(=O)OCCCCc2cc3cc(C(=O)c4ccccc4)ccc3[nH]2)cc1 [Compound 645] | 4.31 | 9.23 |  |  | 
46 | COC(=O)c1ccc2[nH]c(CCCCCCCC[n+]3cccc4ccccc43)cc2c1 [Compound 491] | 8.24 |  | 11.14 |  | 
